# Test results reported in the NIST ThermoML archive (doi:10.1021/acs.jced.5b00662).
# “And” between values parts separate entries of the source, which are not always exact repeats. Identical values can stand only once. Numbers after ± are expanded uncertainties.
# Settings: 283.15 K; 101.33 kPa; Liquid; Sing-around technique in a fixed-path interferometer
row,speed of sound [m/s],SMILES
1,1658.7 ± 1.6,OCCOCCOCCO [triethylene glycol]
2,1428.9 ± 2.3,"CCOCCOCCO [3,6-dioxa-1-octanol]"
3,1360.6 ± 1.5,CCOCCO [2-ethoxyethan-1-ol]
4,1303.4 ± 2.3,CCOCCOCCOCC [diethylene glycol diethyl ether]

# Same assay, conditions: 283.15 K; 101.33 kPa; Liquid; Vibrating tube method
row,mass density [kg/m3],SMILES
1,1131.3 ± 2,OCCOCCOCCO [triethylene glycol]
2,997.1 ± 4.1,"CCOCCOCCO [3,6-dioxa-1-octanol]"
3,941.2 ± 2,CCOCCO [2-ethoxyethan-1-ol]
4,917 ± 4.1,CCOCCOCCOCC [diethylene glycol diethyl ether]

# Same assay, conditions: 288.15 K; 101.33 kPa; Liquid; Concentric cylinders viscometry
row,viscosity [mPa·s],SMILES
1,63.57 ± 2.6,OCCOCCOCCO [triethylene glycol]
2,5.157 ± 0.21,"CCOCCOCCO [3,6-dioxa-1-octanol]"
3,2.314 ± 0.094,CCOCCO [2-ethoxyethan-1-ol]
4,1.483 ± 0.062,CCOCCOCCOCC [diethylene glycol diethyl ether]

# Same assay, conditions: 288.15 K; 101.33 kPa; Liquid; Sing-around technique in a fixed-path interferometer
row,speed of sound [m/s],SMILES
1,1642.8 ± 1.6,OCCOCCOCCO [triethylene glycol]
2,1410.5 ± 2.3,"CCOCCOCCO [3,6-dioxa-1-octanol]"
3,1342 ± 1.5,CCOCCO [2-ethoxyethan-1-ol]
4,1283.2 ± 2.3,CCOCCOCCOCC [diethylene glycol diethyl ether]

# Same assay, conditions: 288.15 K; 101.33 kPa; Liquid; Vibrating tube method
row,mass density,SMILES
1,1128.6 ± 2 kg/m3 and 1127.4 ± 2 kg/m3,OCCOCCOCCO [triethylene glycol]
2,993.9 ± 4.1 kg/m3 and 992.6 ± 4.1 kg/m3,"CCOCCOCCO [3,6-dioxa-1-octanol]"
3,936.8 ± 2 kg/m3 and 936.7 ± 2 kg/m3,CCOCCO [2-ethoxyethan-1-ol]
4,914.4 ± 4.1 kg/m3 and 912.2 ± 4.1 kg/m3,CCOCCOCCOCC [diethylene glycol diethyl ether]

# Same assay, conditions: 293.15 K; 101.33 kPa; Liquid; Concentric cylinders viscometry
row,viscosity [mPa·s],SMILES
1,48.05 ± 1.9,OCCOCCOCCO [triethylene glycol]
2,4.466 ± 0.18,"CCOCCOCCO [3,6-dioxa-1-octanol]"
3,2.066 ± 0.084,CCOCCO [2-ethoxyethan-1-ol]
4,1.353 ± 0.056,CCOCCOCCOCC [diethylene glycol diethyl ether]

# Same assay, conditions: 293.15 K; 101.33 kPa; Liquid; Sing-around technique in a fixed-path interferometer
row,speed of sound [m/s],SMILES
1,1627.2 ± 1.6,OCCOCCOCCO [triethylene glycol]
2,1392.6 ± 2.3,"CCOCCOCCO [3,6-dioxa-1-octanol]"
3,1323.9 ± 1.5,CCOCCO [2-ethoxyethan-1-ol]
4,1263.1 ± 2.3,CCOCCOCCOCC [diethylene glycol diethyl ether]

# Same assay, conditions: 293.15 K; 101.33 kPa; Liquid; Vibrating tube method
row,mass density,SMILES
1,1124.6 ± 2 kg/m3 and 1123.5 ± 2 kg/m3,OCCOCCOCCO [triethylene glycol]
2,989.4 ± 4.1 kg/m3 and 988.2 ± 4.1 kg/m3,"CCOCCOCCO [3,6-dioxa-1-octanol]"
3,932.3 ± 2 kg/m3 and 932.2 ± 2 kg/m3,CCOCCO [2-ethoxyethan-1-ol]
4,909.6 ± 4.1 kg/m3 and 907.4 ± 4.1 kg/m3,CCOCCOCCOCC [diethylene glycol diethyl ether]

# Same assay, conditions: 298.15 K; 101.33 kPa; Liquid; Concentric cylinders viscometry
row,viscosity [mPa·s],SMILES
1,37.27 ± 1.5,OCCOCCOCCO [triethylene glycol]
2,3.811 ± 0.16,"CCOCCOCCO [3,6-dioxa-1-octanol]"
3,1.845 ± 0.075,CCOCCO [2-ethoxyethan-1-ol]
4,1.254 ± 0.052,CCOCCOCCOCC [diethylene glycol diethyl ether]

# Same assay, conditions: 298.15 K; 101.33 kPa; Liquid; Sing-around technique in a fixed-path interferometer
row,speed of sound [m/s],SMILES
1,1611.5 ± 1.6,OCCOCCOCCO [triethylene glycol]
2,1374.6 ± 2.3,"CCOCCOCCO [3,6-dioxa-1-octanol]"
3,1305.7 ± 1.5,CCOCCO [2-ethoxyethan-1-ol]
4,1243.3 ± 2.3,CCOCCOCCOCC [diethylene glycol diethyl ether]

# Same assay, conditions: 298.15 K; 101.33 kPa; Liquid; Vibrating tube method
row,mass density,SMILES
1,1119.7 ± 2 kg/m3 and 1120.7 ± 2 kg/m3,OCCOCCOCCO [triethylene glycol]
2,983.7 ± 4.1 kg/m3 and 984.9 ± 4.1 kg/m3,"CCOCCOCCO [3,6-dioxa-1-octanol]"
3,927.6 ± 2 kg/m3 and 927.7 ± 2 kg/m3,CCOCCO [2-ethoxyethan-1-ol]
4,902.6 ± 4.1 kg/m3 and 904.7 ± 4.1 kg/m3,CCOCCOCCOCC [diethylene glycol diethyl ether]

# Same assay, conditions: 303.15 K; 101.33 kPa; Liquid; Concentric cylinders viscometry
row,viscosity [mPa·s],SMILES
1,29.41 ± 1.2,OCCOCCOCCO [triethylene glycol]
2,3.328 ± 0.14,"CCOCCOCCO [3,6-dioxa-1-octanol]"
3,1.661 ± 0.067,CCOCCO [2-ethoxyethan-1-ol]
4,1.156 ± 0.048,CCOCCOCCOCC [diethylene glycol diethyl ether]

# Same assay, conditions: 303.15 K; 101.33 kPa; Liquid; Sing-around technique in a fixed-path interferometer
row,speed of sound [m/s],SMILES
1,1596.2 ± 1.6,OCCOCCOCCO [triethylene glycol]
2,1356.8 ± 2.3,"CCOCCOCCO [3,6-dioxa-1-octanol]"
3,1286.7 ± 1.5,CCOCCO [2-ethoxyethan-1-ol]
4,1223.4 ± 2.3,CCOCCOCCOCC [diethylene glycol diethyl ether]

# Same assay, conditions: 303.15 K; 101.33 kPa; Liquid; Vibrating tube method
row,mass density,SMILES
1,1115.8 ± 2 kg/m3 and 1116.8 ± 2 kg/m3,OCCOCCOCCO [triethylene glycol]
2,979.3 ± 4.1 kg/m3 and 980.4 ± 4.1 kg/m3,"CCOCCOCCO [3,6-dioxa-1-octanol]"
3,923.1 ± 2 kg/m3,CCOCCO [2-ethoxyethan-1-ol]
4,897.7 ± 4.1 kg/m3 and 899.8 ± 4.1 kg/m3,CCOCCOCCOCC [diethylene glycol diethyl ether]

# Same assay, conditions: 308.15 K; 101.33 kPa; Liquid; Concentric cylinders viscometry
row,viscosity [mPa·s],SMILES
1,23.6 ± 0.95,OCCOCCOCCO [triethylene glycol]
